Target: T1, rat NHE-3 (Rattus norvegicus, UniProt P26433)
T1 construct: expressed in transfected cells; host or cells: Opossum kidney (OK) cells (ATCC), electroporated
Experiment: Cell-based assay of NHE-3 activity (Pharmacological Test Example 1)
Settings: OK cells expressing rat NHE-3; 0-30 uM test compound, 5 uM EIPA
Experimental: Rat NHE-3-mediated Na^+-dependent H^+ antiport was measured using a modification of the pH sensitive dye method originally reported by Tsien (Proc. Natl. Acad. Sci. USA. (1984) 81(23): 7436-7440). Opossum kidney (OK) cells were obtained from the ATCC and propagated per their instructions. The rat NHE-3 gene was introduced into OK cells via electroporation, seeded into 96 well plates and grown overnight. Medium was aspirated from the wells, cells were washed twice with NaCl-HEPES buffer (100 mM NaCl, 50 mM HEPES, 10 mM glucose, 5 mM KCl, 2 mM CaCl2, 1 mM MgCl2, pH 7.4), then incubated for 30 min at room temperature with NH4Cl-HEPES buffer (20 mM NH4Cl, 80 mM NaCl, 50 mM HEPES, 5 mM KCl, 2 mM CaCl2), 1 mM MgCl2, pH 7.4) containing 5 uM BCECF-AM (Invitrogen). Cells were washed twice with Ammonium free, Nat-free HEPES (100 mM choline, 50 mM HEPES, 10 mM glucose, 5 mM KCl, 2 mM CaCl2), 1 mM MgCl2, pH 7.4) and incubated in the same buffer for 10 minutes at room temperature to lower intracellular pH. […] Initial rates were plotted as the average 3-6 replicates, and pIC50 values were estimated using GraphPad Prism.

T1 sequence (P26433 29-831): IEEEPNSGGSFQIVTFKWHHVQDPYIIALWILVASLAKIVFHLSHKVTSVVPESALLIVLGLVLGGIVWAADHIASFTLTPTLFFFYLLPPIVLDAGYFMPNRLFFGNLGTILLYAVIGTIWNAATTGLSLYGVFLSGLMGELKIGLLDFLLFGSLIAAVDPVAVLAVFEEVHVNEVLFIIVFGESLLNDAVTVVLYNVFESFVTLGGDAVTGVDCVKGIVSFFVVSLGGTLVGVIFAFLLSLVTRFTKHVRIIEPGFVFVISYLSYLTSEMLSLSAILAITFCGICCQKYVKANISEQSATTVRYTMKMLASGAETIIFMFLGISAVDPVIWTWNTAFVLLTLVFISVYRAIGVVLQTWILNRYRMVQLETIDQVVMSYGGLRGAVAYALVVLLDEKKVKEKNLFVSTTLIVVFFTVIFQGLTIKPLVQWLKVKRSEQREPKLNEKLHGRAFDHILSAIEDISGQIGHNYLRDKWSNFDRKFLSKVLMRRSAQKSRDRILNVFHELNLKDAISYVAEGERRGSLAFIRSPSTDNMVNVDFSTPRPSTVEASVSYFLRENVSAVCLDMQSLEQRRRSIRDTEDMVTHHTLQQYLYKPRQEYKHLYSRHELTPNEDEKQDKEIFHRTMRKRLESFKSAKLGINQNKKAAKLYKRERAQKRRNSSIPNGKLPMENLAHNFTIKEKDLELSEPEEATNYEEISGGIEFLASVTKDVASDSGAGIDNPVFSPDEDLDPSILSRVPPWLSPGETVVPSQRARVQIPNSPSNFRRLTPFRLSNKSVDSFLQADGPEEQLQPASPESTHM

Structure (SMILES)	rat NHE-3 Average pIC50
CN1Cc2c(Cl)cc(Cl)cc2C(c2cccc(S(=O)(=O)NCCOCCOCCNCc3ccc(CNCCOCCOCCNS(=O)(=O)c4cccc(C5CN(C)Cc6c(Cl)cc(Cl)cc65)c4)cc3)c2)C1 (stereo not shown) [Example 206, N,N′-(2,2′-(2,2′-(2,2′-(1,4-phenylenebis(methylene))bis(azanediyl)bis(ethane-2,1-diyl))bis(oxy)bis(ethane-2,1-diyl))bis(oxy)bis(ethane-2,1-diyl))bis(3-(6,8-dichloro-2-methyl-1,2,3,4-tetrahydroisoquinolin-4-yl)benzenesulfonamide)]	>7
CN1Cc2c(Cl)cc(Cl)cc2C(c2cccc(S(=O)(=O)NCCOCCOCCOCCN)c2)C1 (stereo not shown) [Example 28, N-(2-(2-(2-(2-aminoethoxy)ethoxy)ethoxy)ethyl)-3-(6,8-dichloro-2-methyl-1,2,3,4-tetrahydroisoquinolin-4-yl)benzenesulfonamide]	6 to 7
N=C(N)Nc1nc(-c2cccc(N3CCN(CCC(=O)O)CC3)c2)c2cc(Cl)ccc2n1 [Example 64, 3-(4-(3-(6-chloro-2-(diaminomethyleneamino)quinazolin-4-yl)phenyl)piperazin-1-yl)propanoic acid]	5 to 6
CN1Cc2c(Cl)cc(Cl)cc2C(c2cccc(S(=O)(=O)NCCOCCOCCOCCNC(=O)CCOCCOCCOCCOCCOCCOCCOCCOCCOCCC(=O)NCCOCCOCCOCCNS(=O)(=O)c3cccc(C4CN(C)Cc5c(Cl)cc(Cl)cc54)c3)c2)C1 (stereo not shown) [Example 97, N1,N31-bis(2-(2-(2-(2-(3-(6,8-dichloro-2-methyl-1,2,3,4-tetrahydroisoquinolin-4-yl)phenylsulfonamido)ethoxy)ethoxy)ethoxy)ethyl)-4,7,10,13,16,19,22,25,28-nonaoxahentriacontane-1,31-diamide]	6 to 7
CN1Cc2c(Cl)cc(Cl)cc2C(c2ccc(S(=O)(=O)NCCOCCOCCNC(=O)[C@H](O)[C@@H](O)C(=O)NCCOCCOCCNS(=O)(=O)c3ccc(C4CN(C)Cc5c(Cl)cc(Cl)cc54)cc3)cc2)C1 (stereo partly drawn) [Example 207, (2R,3R)—N1,N4-bis(2-(2-(2-(4-(6,8-dichloro-2-methyl-1,2,3,4-tetrahydroisoquinolin-4-yl)phenylsulfonamido)ethoxy)ethoxy)ethyl)-2,3-dihydroxysuccinamide]	6 to 7
CN1Cc2c(Cl)cc(Cl)cc2C(c2cccc(S(=O)(=O)NCCOCCOCCNC(=O)COCC(=O)NCCOCCOCCNS(=O)(=O)c3cccc(C4CN(C)Cc5c(Cl)cc(Cl)cc54)c3)c2)C1 (stereo not shown) [Example 195, 2,2′-oxybis(N-(2-(2-(2-(3-(6,8-dichloro-2-methyl-1,2,3,4-tetrahydroisoquinolin-4-yl)phenylsulfonamido)ethoxy)ethoxy)ethyl)acetamide)]	>7
C/C(=C\c1cc(F)c(Oc2ccc(S(=O)(=O)NCCOCCOCCOCCN)cc2)c(F)c1)C(=O)N=C(N)N [Example 45, (E)-3-(4-(4-(N-(2-(2-(2-(2-aminoethoxy)ethoxy)ethoxy)ethyl)sulfamoyl)phenoxy)-3,5-difluorophenyl)-N-(diaminomethylene)-2-methylacrylamide]	6 to 7
C/C(=C\c1cc(F)c(Oc2ccc(S(=O)(=O)NCCOCCOCCOCCOCCOCCOCCNC(=O)C(O)C(O)C(=O)NCCOCCOCCOCCOCCOCCOCCNS(=O)(=O)c3ccc(Oc4c(F)cc(/C=C(\C)C(=O)N=C(N)N)cc4F)cc3)cc2)c(F)c1)C(=O)N=C(N)N (stereo not shown) [Example 104, N1,N4-bis(20-(4-(4-((E)-3-(diaminomethyleneamino)-2-methyl-3-oxoprop-1-enyl)-2,6-difluorophenoxy)phenylsulfonamido)-3,6,9,12,15,18-hexaoxaicosyl)-2,3-dihydroxysuccinamide]	6 to 7
CN1Cc2c(Cl)cc(Cl)cc2C(c2cccc(S(=O)(=O)NCCOCCOCCOCCNC(=O)CCCCCCC(=O)NCCOCCOCCOCCNS(=O)(=O)c3cccc(C4CN(C)Cc5c(Cl)cc(Cl)cc54)c3)c2)C1 (stereo not shown) [Example 29, N1,N8-bis(2-(2-(2-(2-(3-(6,8-dichloro-2-methyl-1,2,3,4-tetrahydroisoquinolin-4-yl)phenylsulfonamido)ethoxy)ethoxy)ethoxy)ethyl)octanediamide]	6 to 7
CN1Cc2c(Cl)cc(Cl)cc2C(c2ccc(S(=O)(=O)NCCOCCOCCOCCNC(=O)NCCOCCOCCOCCNS(=O)(=O)c3ccc(C4CN(C)Cc5c(Cl)cc(Cl)cc54)cc3)cc2)C1 (stereo not shown) [Example 103, N,N′-(13-oxo-3,6,9,17,20,23-hexaoxa-12,14-diazapentacosane-1,25-diyl)bis(4-(6,8-dichloro-2-methyl-1,2,3,4-tetrahydroisoquinolin-4-yl)benzenesulfonamide)]	>7
CN1Cc2c(Cl)cc(Cl)cc2C(c2ccc(S(=O)(=O)NCCOCCOCCNC(=O)C(=O)NCCOCCOCCNS(=O)(=O)c3ccc(C4CN(C)Cc5c(Cl)cc(Cl)cc54)cc3)cc2)C1 (stereo not shown) [Example 175, N1,N2-bis(2-(2-(2-(4-(6,8-dichloro-2-methyl-1,2,3,4-tetrahydroisoquinolin-4-yl)phenylsulfonamido)ethoxy)ethoxy)ethyl)oxalamide]	<5.0
Nc1cccc(C2CN(CCOCCOCCOCCN3Cc4c(Cl)cc(Cl)cc4C(c4cccc(N)c4)C3)Cc3c(Cl)cc(Cl)cc32)c1 (stereo not shown) [Example 171, 3,3′-(2,2′-(2,2′-(2,2′-oxybis(ethane-2,1-diyl)bis(oxy))bis(ethane-2,1-diyl))bis(6,8-dichloro-1,2,3,4-tetrahydroisoquinoline-4,2-diyl))dianiline]	<5.0
N=C(N)Nc1nc(-c2cccc(N3CCN(CCCN)CC3)c2)c2cc(Cl)ccc2n1 [Example 65, 1-(4-(3-(4-(3-aminopropyl)piperazin-1-yl)phenyl)-6-chloroquinazolin-2-yl)guanidine]	6 to 7

Same assay, conditions: OK cells expressing rat NHE-3; 0-30 uM test compound, 5 uM EIPA; read-out: rat NHE-3 Average pIC50 (converted)

Structure (SMILES)	IC50
C/C(=C\c1cc(F)c(Oc2ccc(S(=O)(=O)NCCOCCOCCOCCNC(=O)CCOCCOCCOCCOCCOCCOCCOCCOCCOCCC(=O)NCCOCCOCCOCCNS(=O)(=O)c3ccc(Oc4c(F)cc(/C=C(\C)C(=O)N=C(N)N)cc4F)cc3)cc2)c(F)c1)C(=O)N=C(N)N [Example 102, N1,N31-bis(2-(2-(2-(2-(4-(4-((E)-3 (diaminomethyleneamino)-2-methyl-3-oxoprop-1-enyl)-2,6-difluorophenoxy)phenylsulfonamido)ethoxy)ethoxy)ethoxy)ethyl)-4,7,10,13,16,19,22,25,28-nonaoxahentriacontane-1,31-diamide]	100 to 1000 nM
C/C(=C\c1cc(F)c(Oc2ccc(S(=O)(=O)NCCOCCOCCOCCNC(=O)NCCOCCOCCOCCNS(=O)(=O)c3ccc(Oc4c(F)cc(/C=C(\C)C(=O)N=C(N)N)cc4F)cc3)cc2)c(F)c1)C(=O)N=C(N)N [Example 46, N,N′-(13-oxo-3,6,9,17,20,23-hexaoxa-12,14-diazapentacosane-1,25-diyl)bis[(E)-N-(diaminomethylene)-3-(3,5-difluoro-4-(4-sulfamoylphenoxy)phenyl)-2-methylacrylamide]]	100 to 1000 nM
CN1Cc2c(Cl)cc(Cl)cc2[C@H](c2ccc(S(=O)(=O)NCCOCCOCCOCCNC(=O)NCCCCNC(=O)NCCOCCOCCOCCNS(=O)(=O)c3ccc([C@@H]4CN(C)Cc5c(Cl)cc(Cl)cc54)cc3)cc2)C1 (single isomer, unassigned) [Example 251, (S or R)—N,N′-(13,20-dioxo-3,6,9,24,27,30-hexaoxa-12,14,19,21-tetraazadotriacontane-1,32-diyl)bis(4-((S or R)-6,8-dichloro-2-methyl-1,2,3,4-tetrahydroisoquinolin-4-yl)benzenesulfonamide)]	< 100 nM
CN1Cc2c(Cl)cc(Cl)cc2C(c2cccc(S(=O)(=O)NCCOCCOCCOCCn3cc(COCc4cn(CCOCCOCCOCCNS(=O)(=O)c5cccc(C6CN(C)Cc7c(Cl)cc(Cl)cc76)c5)nn4)nn3)c2)C1 (stereo not shown) [Example 81, N,N′-(2,2′-(2,2-(2,2′-(2,2′-(4,4′-oxybis(methylene)bis(1H-1,2,3-triazole-4,1-diyl))bis(ethane-2,1-diyl))bis(oxy)bis(ethane-2,1-diyl))bis(oxy)bis(ethane-2,1-diyl))bis(oxy)bis(ethane-2,1-diyl))bis(3-(6,8-dichloro-2-methyl-1,2,3,4-tetrahydroisoquinolin-4-yl)benzenesulfonamide)]	< 100 nM
CN1Cc2c(Cl)cc(Cl)cc2C(c2cccc(S(=O)(=O)NCCOCCOCCOCCNS(=O)(=O)c3cccc(S(=O)(=O)NCCOCCOCCOCCNS(=O)(=O)c4cccc(C5CN(C)Cc6c(Cl)cc(Cl)cc65)c4)c3)c2)C1 (stereo not shown) [Example 219, N1,N3-bis(2-(2-(2-(2-(3-(6,8-dichloro-2-methyl-1,2,3,4-tetrahydroisoquinolin-4-yl)phenylsulfonamido)ethoxy)ethoxy)ethoxy)ethyl)benzene-1,3-disulfonamide]	1000 to 10000 nM
CN1Cc2c(Cl)cc(Cl)cc2C(c2cccc(S(=O)(=O)NCCOCCOCCOCCNC(=O)Nc3ccc(NC(=O)NCCOCCOCCOCCNS(=O)(=O)c4cccc(C5CN(C)Cc6c(Cl)cc(Cl)cc65)c4)cc3)c2)C1 (stereo not shown) [Example 209, N,N′-(1,1′-(1,4-phenylenebis(azanediyl))bis(1-oxo-5,8,11-trioxa-2-azatridecane-13,1-diyl))bis(3-(6,8-dichloro-2-methyl-1,2,3,4-tetrahydroisoquinolin-4-yl)benzenesulfonamide)]	1000 to 10000 nM

Source: patent publication US20190374533A1, “COMPOUNDS AND METHODS FOR INHIBITING NHE-MEDIATED ANTIPORT IN THE TREATMENT OF DISORDERS ASSOCIATED WITH FLUID RETENTION OR SALT OVERLOAD AND GASTROINTESTINAL TRACT DISORDERS” (Ardelyx, Inc., priority 2008, published 2019)
